Data set [1] is described as follows: Hydrophobicity by hydrophobic interaction chromatography (HIC), phenyl Superose column (retention time, ta/tm). Format: physicochemical. As to conditions: for HIC Retention Time (Phenyl Superose Col.): no surfactant. The protocol:
The hydrophobicity of an agent (eg, an agent such as a polypeptide or protein in solution, as well as the relative increase or decrease thereof) is determined by passing the agent-containing solution through a chromatography column filled with a particular "hydrophobic interaction" bead material and measuring either (1) the time required for the agent to elute (ie, pass through) the column or (2) the volume of liquid (ie, the same liquid used in the agent-containing sample, but with the agent removed) required to be pumped through the column in order to elute the agent. For the purposes of the present invention, the hydrophobicity of an agent is defined in terms relative to the marker compound, N-acetyl tryptophanamide (sold by Sigma Chemical, St. Louis, Mo.), which has a somewhat moderate hydrophobicity. Hydrophobicity, as that term is used herein, is measured using a 5 mm diameter glass column having a length of 5 cm (ie, column volume of 1.0 mL) and packed with cross-linked agar beads having an average particle size of 13.5 μm. Examples of suitable hydrophobic bead materials include cross-linked agar gel beads (Superose 12) having hydrophobic ligands attached to the agar via chemically stable ether linkages ((Superose 12)--O--CH2 --CHOH--CH2 --O--R) such as alkyl-Superose wherein R is --CH2 --C(CH3)3 and phenyl-Superose wherein R is phenyl, both of which are sold in pre-packaged column form by Pharmacia Biotech, Inc. of Piscataway, N.J. Immediately downstream from the column is placed a flow cell which permits continuous UV absorbance measurements of the solution flowing out of the column. Suitable flow cells and UV absorbance detectors are sold by Perkin-Elmer Corp., Applied Biosystems, Foster City, Calif. Hydrophobicity measurements are conducted at 32° C. with the same buffer that is used in the electrotransport system which is used to deliver the agent (eg, transdermally) to the patient. The buffer strength used in the hydrophobicity measurements is 10 mM ionic strength. The term "certain hydrophobicity" as used herein, means that the time required for the agent to elute from the column, relative to the time required for N-acetyl tryptophanamide to elute, is as follows:
ta /tm >0.7, and preferably ta /tm >3
ta is the time at which the peak UV absorbance value is recorded for the beneficial agent in the flow cell, less the time required to initially fill the column with the agent-containing solution (ie, dead volume retention time); and
tm is the time at which the peak UV absorbance value is recorded for the N-acetyl tryptophanamide marker in the flow cell, less the time required to initially fill the column with the marker-containing solution (ie, dead volume retention time).
The above described measurement of agent hydrophobicity is substantially independent of column size and flow rate through the column.
One method of measuring the hydrophobicity of an agent such as a polypeptide or protein is by hydrophobic interaction chromatography (HIC). The principles and conditions associated with HIC are fully described in Protein Purification: Principles, High Resolution Methods, and Applications, Janson and Ryden, Eds., pp. 207-226 (1989), the pertinent portions of which are incorporated herein by reference. This method requires passing a composition through a hydrophobic interaction column and measuring the volume of solvent required for its complete elution. The hydrophobic sites on the agent are generally attracted to hydrophobic groups, such as aryl groups, affixed to beads placed within the column. A preferred HIC column material is phenyl-superose (Pharmacia, Sweden), a cross-linked polysaccharide which has been covalently modified to have pendant hydrophobic aryl groups. These pendant groups are similar to the hydrophobic or lipophilic species in the skin layers. Thus, this hydrophobic interaction column approximates, and is a good in vitro model for, an animal's skin layer as a barrier to transport of a polypeptide or protein. […]

The conditions of data set [2]: pH 6.5.
Protocol: A. Preparation of Human Skin Samples
Human cadaver skin was prepared by first removing about 1 mm thick skin samples in the form of strips. The skin strips were placed in polyethylene bags, sealed and placed in a refrigerator at about 4° C. for temporary storage. Prior to use in the electrotransport cell, the skin strips were placed in one-liter beakers containing water at 60° C. for about 90 seconds with gentle stirring. Then, the skin strips were removed and placed onto the absorbent side of a piece of BENCHKOTE™ material with the dermis side down. Using flat tipped tweezers to retain the dermis, the epidermis was removed from each strip with a round-tip spatula. Each epidermis, stratum corneum side up, was transferred to a PYREX™ glass tray filled with water. Each floating epidermis was stretched essentially flat. After removal from the water 2.22 cm (7/8 in) diameter disks of each epidermis were punched out of areas having negligible surface damage. The discs were stored at 4° C. in a sealed container with water droplets to maintain their moisture.
B. Set-up of Electrotransport Cell and Composition […]
The solution concentration of the polypeptide in the donor compartment 44 was, unless otherwise specified, 1 mM. […] The polypeptide flux was determined by periodic sampling of the solution in the receptor compartment 46. […]
Data set [3] in a line: Electrophoretic mobility by capillary zone electrophoresis. It counts as physicochemical. To be noted: no surfactant. The procedure:
Since electrophoretic mobility (ie, the ability of a drug/agent to migrate in an electric field) is an important aspect of electrotransport drug delivery, the electrophoretic mobility of the drug/agent being delivered is predictive of suitability for transdermal electrotransport delivery. Electrophoretic mobility measurements were performed using a capillary zone electrophoresis instrument (model 2100 P/ACE instrument, Beckman Instruments, Inc., Palo Alto, Calif.). At acid pH values DB-WAX, DB-1, DB-17 (J&W Scientific, Folsom, Calif.) capillary columns were used either with 50 or 100 micron internal diameter column and CElect H75 (Supelco, Bellefonte, Pa.) capillary column with a 75 micron internal diameter. At alkaline pH values uncoated silica capillaries of length 57 cm with an internal diameter of 75 microns were used with an applied voltage of 20 kV. If any electroosmotic flow was present, it was detected using a neutral marker such as 0.01% benzyl alcohol (SIGMA, St. Louis, Mo.) or 1/500 mesityl oxide (Applied Biosystems, Foster City, Calif.). The optimum voltage was determined by doing an Ohm's Law test on each buffer and capillary system. The temperature of the capillary columns was set at 32° C. and a two second pressure injection was done. A UV detector was used to monitor peptide and markers at either 214 or 280 nm.
Voltage injection had to be used for the 27 cm length column. The voltage applied varied depending on the capillary length.
The following equation was used to determine electrophoretic mobility μ. [formula]
If the electroosmotic flow is detected, the following equation can be used.
μpeptide =μtotal -μneutral marker
(§1) The measurement procedures described above were conducted on an aqueous solution of the protein insulinotropin, with TWEEN® 20 (MW=1126 g/mol) as the surfactant, with the following modifications. The insulinotropin donor solution concentration was 0.12 mg/mL. One test was run in 10 mM sodium borate at pH 9.0 and another test in 10 mM sodium chloroacetate at pH 3.5.
(§2) Fractional changes (%δ) are defined as the difference between the reading at a given surfactant concentration (Ec) minus the reading at zero surfactant (E0), the quantity divided by the difference between the reading at saturated surfactant concentration (Es) minus the reading at zero surfactant (E0), i. e. %δ=(Ec -E0)/(Es-E0).
The measurement procedures described earlier were conducted in this example on an aqueous solution containing insulinotropin as the agent and dodecyl trimethyl ammonium chloride (DTAC) as the ionic surfactant with the following modifications. […]
The same measurement procedures were conducted using an aqueous solution of salmon calcitonin as the agent and the zwitterionic dodecyl sulfobetaine as the surfactant with the following modifications. The temperature was initially 32° C., the surfactant concentration was varied up to 30 mM, and the calcitonin concentration was 0.06 to 0.08 mM. Tables 7, 8, and 9 below provide the results obtained in terms of polypeptide ellipticity expressed as a function of zwitterionic surfactant concentration at pH 3.5 in 12 mM sodium chloroacetate (Table 7), 5.0 in 4 mM piperazine HCI (Table 8), and 6.5 in 15 mM sodium cacodylate (Table 9), respectively. Table 8, in addition, provides the results obtained on electrophoretic mobility and HIC retention time in a phenyl superose column at pH 5.0.

Data set [4] can be described thus: Measurement of circular dichroism (mean residue ellipticity at 222 nm). It counts as physicochemical. To be noted: insulinotropin as agent.
Source text: In general, the structure of a polypeptide in an aqueous buffered solution is in constant flux between portions thereof being random coil and alpha-helix configurations. For the polypeptides used in the following examples, the predominant structure is a random coil since the alpha-helix configuration is unstable in the absence of bound surfactant. According to the present invention adding surfactant to an aqueous solution of a polypeptide stabilizes the alpha-helix configuration. Circular dichroism is a measurement of the amount of the alpha-helix configured polypeptide present in the solution. Thus, circular dichroism provides an indirect measurement of the degree of binding of the surfactant to the polypeptide. (See, for example, Epand R. M., Epand R. F., Orlowski R. C., Schuleter R. J., Boni L. T. and Hui S. W., Biochemistry 22, 5074-5084 (1983); Hui, S. W., Epand R. M., Dell K. R., Epand R. F. and Orlowski R. C., Biochimica Biophysica Acta 772, 264-272 (1984); Epand R. M., Epand R. F., and Orlowski R. C., International Journal Peptide Protein Research 25 105-111; Epand R. M., Epand R. F., Orlowski R. C., Seyler J. K. and Colescott R. L., Biochemistry 25, 1964-1968; Epand R. M., Seyler J. K. and Orlowski R. C., European Journal Biochemistry 159, 125-127 (1986); Wiersema P. H., Loeb A. L. and Overbeek, J., Colloid Interface Science 22, 78-99 (1966)).
The surfactant/peptide circular dichroism (CD) spectra were obtained in a 2 mm path-length cell (110-Q-2 Model, AVIV, Lakewood, N.J.) at 32° C. The cell was initially loaded with 0.60 mL of a solution containing about 0.25 mg/mL of the peptide in 10 mM sodium chloroacetate (pH 3.5) or 10 mM sodium borate (pH 9.0). The buffers were selected to minimize the effect of the temperature on the pH of the solution and to minimize light absorption, thereby optimizing the signal-to-noise ratio (SNR). The peptide concentration was determined by spectrophotometry, with log-log correction for light scattering. The surfactant concentration was increased step-wise by titration of concentrated surfactant stock directly into the CD cell, followed by eight inversions of the cell, with the air bubble providing the mixing turbulence. After mixing, the cell was placed into the AVIV 62 CD spectrometer (AVIV, Lakewood, N.J.). In order to approximate temperature and chemical equilibrium, the sample remained in the spectrometer 5 minutes before a reading was taken. The CD spectrum was taken using a band pass of 1 nm, a data interval of 1 nm, and a data averaging time of 10 seconds. The mean residue ellipticity is the ellipticity divided by the path length in cm times the amino acid residue concentration in decimoles/cm^3. See Methods in Enzymology, Vol 130, pp 208-269, Yang et al, "Calculation of Protein Conformation from Circular Dichroism" (1986).
as §1, §2
The measurement procedures described earlier were conducted on an aqueous solution of insulinotropin as the agent, and TWEEN® 40 (molecular weight 1282 g/mol) as the surfactant with the following changes. The insulinotropin concentration was initially 0.29 mg/mL, and 0.21 mg/mL after the final TWEEN® 40 addition and the temperature was held at 32° C. Two tests were conducted at two different concentrations of TWEEN® 40. […]
On the technique in general: Circular dichroism is widely used to follow secondary structure.

For “D-Glu-D-Tyr-D-Leu-D-Lys-D-Ata-D-Leu-D-Leu-D-Ser-D-Lys-D-Leu-NH2 [Model Decapeptide, reference compound]”, the ta /tm in data set [1] (10 mM HIS buffer, pH 7.0) is reported as 0.6; in data set [1] (HIS buffer, pH 7.2) it was 0.5; in data set [1] (pH 6.5 (10 mM histidine), no enhancer), 0.8; in data set [1] (pH 6.5 (10 mM histidine), no enhancer, listed as decapeptide), “about 0.8”; in data set [1] (pH 6.5, with 3 mM Tween 20) it was 0.9. In addition, in data set [2], the “in vitro Skin Flux” value is listed as “l.3 μg/cm^2 -hr”.

As to “Cytochrome C: protein, molecular weight 12,400 g/mol”, the “Electrophoretic Mobility” value in data set [3] is reported as 2.5 × 10^-4 cm^2 /V-s. Besides, the “HIC Retention Time (Phenyl Superose Col.)” value (from here on “HIC Retention Time”) in data set [1] is listed as 2.0 min.

Take “Lysozyme: protein, molecular weight 14,315 g/mol”: in data set [3], the “Electrophoretic Mobility” value is listed as 2.4 × 10^-4 cm^2 /V-s. The “HIC Retention Time” value in data set [1] amounted to 24.0 min.

In the case of `CCCCCCCCCCCC[N+](C)(C)C.[Cl-]` [DTAC, dodecyl trimethyl ammonium chloride, reference compound], in data set [4], the “surfactant concentration at which an ellipticity of -9000 occurs” value was “about 3.0 mM”.

B1: Ribonuclease: protein, molecular weight 13,686 g/mol (protein, UniProt P61823 27-150, looked up)
Ribonuclease pancreatic: KETAAAKFERQHMDSSTSAASSSNYCNQMMKSRNLTKDRCKPVNTFVHESLADVQAVCSQKNVACKNGQTNCYQSYSTMSITDCRETGSSKYPNCAYKTTQANKHIIVACEGNPYVPVHFDASV
Take B1: the “Electrophoretic Mobility” value in data set [3] was 1.9 × 10^-4 cm^2 /V-s. Moreover, the “HIC Retention Time” value in data set [1] is 12.1 min.

The values above are taken from US6328728A, “Composition and method for enhancing electrotransport agent delivery” (Alza Corporation, priority 1997, dated 2001).
